Blank lines part the entries; values can stand above or below the molecule they belong to. Active and inactive are the calls of the source. No cut-off for these calls is given here.
Assays:
Rattus norvegicus [1] = assay: AUC (0 to t) in Sprague-Dawley rat at 1 mg/kg, iv administered as bolus dose by LC-MS/MS method; format: ADME, organism-based; settings: in vivo
[2] = Half-life in Sprague-Dawley rat at 1 mg/kg, iv administered as bolus dose by LC-MS/MS method; format: ADME, organism-based; settings: in vivo
[3] = MRT (0 to t) in Sprague-Dawley rat at 1 mg/kg, iv administered as bolus dose by LC-MS/MS method; format: ADME, organism-based; settings: in vivo
Rattus norvegicus [4] = assay: AUC (0 to infinity) in Sprague-Dawley rat at 1 mg/kg, iv administered as bolus dose by LC-MS/MS method; format: ADME, organism-based; set-up: dose 1 mg/kg, time infinity, route intravenous; settings: in vivo
[5] = Clearance in Sprague-Dawley rat at 1 mg/kg, iv administered as bolus dose by LC-MS/MS method; format: ADME, organism-based; settings: in vivo
[6] = Volume of distribution at steady state in Sprague-Dawley rat at 1 mg/kg, iv administered as bolus dose by LC-MS/MS method; format: ADME, organism-based; settings: in vivo, read-out: Vdss
[7] = molecular target: T1, Serine/threonine-protein kinase Nek2 (Homo sapiens, UniProt P51955); assay: Inhibition of N-terminal His6-tagged full-length recombinant human NEK2 expressed in baculovirus infected sf21 cells using biotin labelled-STK-3 substrate measured after 60 mins by HTRF assay
T1 sequence (P51955 whole entry): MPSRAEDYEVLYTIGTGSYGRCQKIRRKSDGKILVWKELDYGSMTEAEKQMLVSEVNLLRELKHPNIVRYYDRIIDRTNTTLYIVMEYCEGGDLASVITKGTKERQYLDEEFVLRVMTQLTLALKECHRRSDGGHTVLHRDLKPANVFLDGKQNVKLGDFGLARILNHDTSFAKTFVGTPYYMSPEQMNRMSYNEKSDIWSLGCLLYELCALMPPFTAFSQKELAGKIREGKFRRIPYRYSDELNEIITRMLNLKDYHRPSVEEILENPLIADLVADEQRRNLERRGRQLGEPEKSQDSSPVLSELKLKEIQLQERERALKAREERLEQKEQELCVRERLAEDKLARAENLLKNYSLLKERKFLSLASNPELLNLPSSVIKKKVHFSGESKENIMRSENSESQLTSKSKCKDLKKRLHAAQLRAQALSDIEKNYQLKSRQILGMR

MGC-803 = assay: Cytotoxicity against human MGC803 cells measured after 72 hrs by MTT assay; format: functional, cell-based; settings: MGC-803, 72 h
HCT-116 [8] = assay: Cytotoxicity against human HCT116 cells measured after 72 hrs by MTT assay; format: functional, cell-based; settings: HCT-116, 72 h
Bel-7402 = assay: Cytotoxicity against human Bel7402 cells measured after 72 hrs by MTT assay; format: functional, cell-based; settings: Bel-7402, 72 h
Aurora kinase A = molecular target: T2, Aurora kinase A (Homo sapiens, UniProt O14965); assay: Inhibition of Aurora A (unknown origin)
T2 sequence (O14965 whole entry): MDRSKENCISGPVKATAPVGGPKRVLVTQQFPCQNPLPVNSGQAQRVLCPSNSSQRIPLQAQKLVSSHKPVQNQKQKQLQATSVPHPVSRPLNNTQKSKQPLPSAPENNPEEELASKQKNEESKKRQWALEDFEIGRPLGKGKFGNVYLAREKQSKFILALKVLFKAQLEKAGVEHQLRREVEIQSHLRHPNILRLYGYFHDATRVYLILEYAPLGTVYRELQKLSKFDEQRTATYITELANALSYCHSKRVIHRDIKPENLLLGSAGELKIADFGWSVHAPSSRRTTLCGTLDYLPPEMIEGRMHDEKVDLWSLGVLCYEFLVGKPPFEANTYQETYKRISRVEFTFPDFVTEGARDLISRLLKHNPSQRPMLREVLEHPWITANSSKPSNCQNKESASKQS

[9] = molecular target: RAC-alpha serine/threonine-protein kinase (Homo sapiens, UniProt P31749); assay: Inhibition of AKT1 (unknown origin)
[10] = molecular target: Tyrosine-protein kinase ABL1 (Homo sapiens, UniProt P00519); assay: Inhibition of ABL (unknown origin)
[11] = molecular target: Ribosomal protein S6 kinase alpha-1 (Homo sapiens, UniProt Q15418); assay: Inhibition of RSK1 (unknown origin)
[12] = molecular target: Dual specificity tyrosine-phosphorylation-regulated kinase 1A (Homo sapiens, UniProt Q13627); assay: Inhibition of DYRK1A (unknown origin)
[13] = molecular target: T3, Serine/threonine-protein kinase Chk1 (Homo sapiens, UniProt O14757); assay: Inhibition of CHK1 (unknown origin)
T3 sequence (O14757 whole entry): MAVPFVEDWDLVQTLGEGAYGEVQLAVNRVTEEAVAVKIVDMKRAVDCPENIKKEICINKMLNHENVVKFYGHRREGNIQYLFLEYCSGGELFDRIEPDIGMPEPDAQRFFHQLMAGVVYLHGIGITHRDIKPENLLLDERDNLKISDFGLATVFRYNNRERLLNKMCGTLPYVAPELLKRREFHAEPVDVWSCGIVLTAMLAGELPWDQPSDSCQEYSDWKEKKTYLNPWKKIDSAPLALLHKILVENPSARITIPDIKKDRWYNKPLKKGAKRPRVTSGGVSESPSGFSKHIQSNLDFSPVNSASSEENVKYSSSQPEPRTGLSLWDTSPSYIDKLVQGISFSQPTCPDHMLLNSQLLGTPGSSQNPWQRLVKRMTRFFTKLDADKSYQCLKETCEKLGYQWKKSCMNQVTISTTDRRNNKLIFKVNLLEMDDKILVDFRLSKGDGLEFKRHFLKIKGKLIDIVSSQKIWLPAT

[14] = molecular target: MAP kinase-activated protein kinase 2 (Homo sapiens, UniProt P49137); assay: Inhibition of MAPKAPK2 (unknown origin)
[15] = molecular target: Glycogen synthase kinase-3 beta (Homo sapiens, UniProt P49841); assay: Inhibition of GSK3beta (unknown origin)
[16] = molecular target: Phosphatidylinositol 4,5-bisphosphate 3-kinase catalytic subunit alpha isoform (Homo sapiens, UniProt P42336); assay: Inhibition of PI3Kalpha (unknown origin)
[17] = molecular target: Mitogen-activated protein kinase 14 (Homo sapiens, UniProt Q16539); assay: Inhibition of P38alpha (unknown origin)
[18] = molecular target: Cyclin-dependent kinase 2 (Homo sapiens, UniProt P24941); assay: Inhibition of CDK2 (unknown origin)
[19] = molecular target: Cyclin-dependent kinase 4 (Homo sapiens, UniProt P11802); assay: Inhibition of CDK4 (unknown origin)
HCT-116 [20] = assay: Induction of apoptosis in human HCT116 cells assessed as early apoptotic cells at 0.5 uM measured after 24 hrs by Annexin-V/PI staining based flow cytometry (reference value: 4%); format: functional
HCT-116 [21] = assay: Induction of apoptosis in human HCT116 cells assessed as late apoptotic cells at 0.5 uM measured after 24 hrs by Annexin-V/PI staining based flow cytometry (reference value: […]); format: functional
HCT-116 [22] = assay: Induction of apoptosis in human HCT116 cells assessed as necrotic cells at 0.5 uM measured after 24 hrs by Annexin-V/PI staining based flow cytometry (reference value: 0.4%); format: functional
HCT-116 [23] = assay: Induction of apoptosis in human HCT116 cells assessed as early apoptotic cells at 1 uM measured after 24 hrs by Annexin-V/PI staining based flow cytometry (reference value: 4%); format: functional
HCT-116 [24] = assay: Induction of apoptosis in human HCT116 cells assessed as late apoptotic cells at 1 uM measured after 24 hrs by Annexin-V/PI staining based flow cytometry (reference value: […]); format: functional
HCT-116 [25] = assay: Induction of apoptosis in human HCT116 cells assessed as necrotic cells at 1 uM measured after 24 hrs by Annexin-V/PI staining based flow cytometry (reference value: 0.4%); format: functional
HCT-116 [26] = assay: Antitumor activity against human HCT116 cells xenografted in BALB/c nu/nu mouse assessed as tumor growth inhibition at 20 mg/kg, ip administered twice daily for 21 days; format: functional; settings: HCT-116, ip, read-out: TGI
Mus musculus = assay: Toxicity in BALB/c nu/nu mouse assessed as body weight loss at 20 mg/kg, ip administered twice daily for 21 days; format: organism-based; settings: in vivo
HCT-116 [27] = assay: Cell cycle arrest in human HCT116 cells assessed as G2/M phase accumulation by measuring >4N DNA content at 0.5 to 1 uM measured after 24 hrs by propidium iodide staining based flow cytometry; format: functional
HCT-116 [28] = assay: Cell cycle arrest in human HCT116 cells assessed as accumulation at G2/M phase at 0.5 to 1 uM measured after 24 hrs by propidium iodide staining based flow cytometry; format: functional
HCT-116 [29] = assay: Induction of apoptosis in human HCT116 cells measured after 24 hrs by Annexin-V/PI staining based flow cytometry; format: functional, cell-based
HCT-116 [30] = assay: Antitumor activity against human HCT116 cells xenografted in BALB/c nu/nu mouse assessed as reduction in tumor volume at 20 mg/kg, ip administered twice daily for 21 days; format: functional, organism-based

Sequence of MAP kinase-activated protein kinase 2 (P49137 whole entry): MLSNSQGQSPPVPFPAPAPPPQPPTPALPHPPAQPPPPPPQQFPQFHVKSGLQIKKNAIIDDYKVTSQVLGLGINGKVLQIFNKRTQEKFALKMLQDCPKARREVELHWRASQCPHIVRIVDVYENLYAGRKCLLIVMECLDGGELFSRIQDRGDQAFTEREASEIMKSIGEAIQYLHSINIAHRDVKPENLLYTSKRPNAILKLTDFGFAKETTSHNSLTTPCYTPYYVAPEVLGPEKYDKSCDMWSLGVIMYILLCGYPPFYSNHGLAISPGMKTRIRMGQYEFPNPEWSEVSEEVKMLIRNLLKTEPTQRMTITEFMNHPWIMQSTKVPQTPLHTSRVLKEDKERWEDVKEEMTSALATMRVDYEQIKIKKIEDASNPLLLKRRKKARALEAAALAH
Sequence of Mitogen-activated protein kinase 14 (Q16539 whole entry): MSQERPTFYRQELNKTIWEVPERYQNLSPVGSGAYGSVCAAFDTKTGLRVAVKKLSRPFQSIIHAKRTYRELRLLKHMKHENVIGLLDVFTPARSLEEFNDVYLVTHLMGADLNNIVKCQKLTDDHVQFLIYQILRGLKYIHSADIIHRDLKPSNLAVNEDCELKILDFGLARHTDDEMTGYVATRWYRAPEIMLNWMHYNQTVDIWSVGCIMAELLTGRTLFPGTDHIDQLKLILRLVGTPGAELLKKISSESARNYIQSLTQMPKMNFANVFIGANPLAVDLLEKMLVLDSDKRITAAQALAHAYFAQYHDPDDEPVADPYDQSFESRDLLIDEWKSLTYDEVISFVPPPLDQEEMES
Sequence of Tyrosine-protein kinase ABL1 (P00519 whole entry): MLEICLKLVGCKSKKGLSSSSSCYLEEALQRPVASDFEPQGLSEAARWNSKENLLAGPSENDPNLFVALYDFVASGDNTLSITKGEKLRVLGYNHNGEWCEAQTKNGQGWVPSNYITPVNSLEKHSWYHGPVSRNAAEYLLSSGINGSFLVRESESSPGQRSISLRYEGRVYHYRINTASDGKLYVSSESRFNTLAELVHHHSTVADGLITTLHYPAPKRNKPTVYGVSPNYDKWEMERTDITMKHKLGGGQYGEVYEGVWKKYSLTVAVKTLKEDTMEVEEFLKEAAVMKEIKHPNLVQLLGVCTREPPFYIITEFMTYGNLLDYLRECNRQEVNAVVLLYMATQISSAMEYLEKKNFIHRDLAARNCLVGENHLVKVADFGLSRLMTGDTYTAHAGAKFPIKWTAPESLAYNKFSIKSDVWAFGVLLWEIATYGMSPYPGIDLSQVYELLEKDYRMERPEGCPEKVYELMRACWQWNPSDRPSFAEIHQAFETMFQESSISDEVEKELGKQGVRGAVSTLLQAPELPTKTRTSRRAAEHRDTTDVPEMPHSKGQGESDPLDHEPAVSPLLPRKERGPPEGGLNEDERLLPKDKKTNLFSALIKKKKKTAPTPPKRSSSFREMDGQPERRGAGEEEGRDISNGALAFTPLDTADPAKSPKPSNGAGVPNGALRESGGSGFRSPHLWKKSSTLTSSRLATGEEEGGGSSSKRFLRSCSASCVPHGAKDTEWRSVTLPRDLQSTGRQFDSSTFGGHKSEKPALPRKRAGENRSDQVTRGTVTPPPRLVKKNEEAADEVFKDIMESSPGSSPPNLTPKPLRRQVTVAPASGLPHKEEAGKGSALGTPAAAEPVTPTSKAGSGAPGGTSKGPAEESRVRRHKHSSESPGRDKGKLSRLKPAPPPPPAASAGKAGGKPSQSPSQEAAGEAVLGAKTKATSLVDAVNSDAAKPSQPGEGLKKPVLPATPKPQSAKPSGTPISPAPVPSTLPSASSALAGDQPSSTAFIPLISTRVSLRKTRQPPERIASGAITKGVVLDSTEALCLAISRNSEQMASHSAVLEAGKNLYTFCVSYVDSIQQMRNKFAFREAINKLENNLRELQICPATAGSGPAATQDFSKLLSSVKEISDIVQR
Sequence of Phosphatidylinositol 4,5-bisphosphate 3-kinase catalytic subunit alpha isoform (P42336 whole entry, canonical isoform): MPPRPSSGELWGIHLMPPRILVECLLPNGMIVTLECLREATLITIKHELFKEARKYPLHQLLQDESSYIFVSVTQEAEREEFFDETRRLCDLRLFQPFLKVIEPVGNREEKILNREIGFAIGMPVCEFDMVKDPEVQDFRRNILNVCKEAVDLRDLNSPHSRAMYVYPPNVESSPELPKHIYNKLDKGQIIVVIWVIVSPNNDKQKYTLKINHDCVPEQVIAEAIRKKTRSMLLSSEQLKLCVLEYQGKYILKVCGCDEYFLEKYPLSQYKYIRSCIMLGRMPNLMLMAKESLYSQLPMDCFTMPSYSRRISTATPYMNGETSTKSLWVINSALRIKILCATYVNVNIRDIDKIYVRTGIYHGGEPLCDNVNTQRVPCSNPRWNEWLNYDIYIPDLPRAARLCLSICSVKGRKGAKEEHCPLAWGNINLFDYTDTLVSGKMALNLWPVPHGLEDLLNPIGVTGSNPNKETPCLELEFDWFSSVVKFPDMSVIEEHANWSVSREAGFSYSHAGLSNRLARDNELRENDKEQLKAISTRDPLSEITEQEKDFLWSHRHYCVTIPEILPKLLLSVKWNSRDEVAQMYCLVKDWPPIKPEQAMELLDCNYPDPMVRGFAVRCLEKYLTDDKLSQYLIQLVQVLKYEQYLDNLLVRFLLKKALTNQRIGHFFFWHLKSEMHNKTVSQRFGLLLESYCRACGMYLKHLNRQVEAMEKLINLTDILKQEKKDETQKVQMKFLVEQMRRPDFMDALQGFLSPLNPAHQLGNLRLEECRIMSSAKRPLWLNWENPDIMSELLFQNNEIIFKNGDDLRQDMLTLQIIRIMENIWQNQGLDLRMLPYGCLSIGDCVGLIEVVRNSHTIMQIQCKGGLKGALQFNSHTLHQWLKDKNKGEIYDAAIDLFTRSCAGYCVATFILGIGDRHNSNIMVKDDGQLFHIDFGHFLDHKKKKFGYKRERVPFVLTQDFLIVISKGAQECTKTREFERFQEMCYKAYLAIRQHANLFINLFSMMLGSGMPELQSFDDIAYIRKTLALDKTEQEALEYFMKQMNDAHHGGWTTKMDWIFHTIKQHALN
Sequence of Cyclin-dependent kinase 4 (P11802 whole entry): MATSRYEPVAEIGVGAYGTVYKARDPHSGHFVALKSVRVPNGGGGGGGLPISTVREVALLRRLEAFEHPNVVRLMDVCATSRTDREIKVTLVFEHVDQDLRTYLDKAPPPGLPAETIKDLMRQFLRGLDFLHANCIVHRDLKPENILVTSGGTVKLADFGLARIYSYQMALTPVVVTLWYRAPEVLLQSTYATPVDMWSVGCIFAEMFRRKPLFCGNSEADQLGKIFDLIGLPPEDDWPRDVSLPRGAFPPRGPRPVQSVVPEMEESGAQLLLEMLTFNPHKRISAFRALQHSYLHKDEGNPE
Sequence of RAC-alpha serine/threonine-protein kinase (P31749 whole entry): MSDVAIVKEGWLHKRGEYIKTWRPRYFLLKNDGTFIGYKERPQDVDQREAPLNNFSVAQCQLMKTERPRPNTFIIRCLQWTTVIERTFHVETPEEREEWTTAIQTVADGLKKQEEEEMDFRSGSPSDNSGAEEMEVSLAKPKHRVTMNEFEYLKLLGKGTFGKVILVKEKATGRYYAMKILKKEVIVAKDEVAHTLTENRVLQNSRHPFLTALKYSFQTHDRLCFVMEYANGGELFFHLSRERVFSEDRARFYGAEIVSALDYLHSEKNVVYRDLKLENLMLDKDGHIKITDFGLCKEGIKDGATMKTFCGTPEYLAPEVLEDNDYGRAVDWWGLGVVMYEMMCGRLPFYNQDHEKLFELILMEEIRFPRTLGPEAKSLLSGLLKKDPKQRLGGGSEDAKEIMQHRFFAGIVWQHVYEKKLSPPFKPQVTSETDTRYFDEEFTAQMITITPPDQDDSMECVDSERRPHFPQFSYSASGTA
Sequence of Ribosomal protein S6 kinase alpha-1 (Q15418 whole entry): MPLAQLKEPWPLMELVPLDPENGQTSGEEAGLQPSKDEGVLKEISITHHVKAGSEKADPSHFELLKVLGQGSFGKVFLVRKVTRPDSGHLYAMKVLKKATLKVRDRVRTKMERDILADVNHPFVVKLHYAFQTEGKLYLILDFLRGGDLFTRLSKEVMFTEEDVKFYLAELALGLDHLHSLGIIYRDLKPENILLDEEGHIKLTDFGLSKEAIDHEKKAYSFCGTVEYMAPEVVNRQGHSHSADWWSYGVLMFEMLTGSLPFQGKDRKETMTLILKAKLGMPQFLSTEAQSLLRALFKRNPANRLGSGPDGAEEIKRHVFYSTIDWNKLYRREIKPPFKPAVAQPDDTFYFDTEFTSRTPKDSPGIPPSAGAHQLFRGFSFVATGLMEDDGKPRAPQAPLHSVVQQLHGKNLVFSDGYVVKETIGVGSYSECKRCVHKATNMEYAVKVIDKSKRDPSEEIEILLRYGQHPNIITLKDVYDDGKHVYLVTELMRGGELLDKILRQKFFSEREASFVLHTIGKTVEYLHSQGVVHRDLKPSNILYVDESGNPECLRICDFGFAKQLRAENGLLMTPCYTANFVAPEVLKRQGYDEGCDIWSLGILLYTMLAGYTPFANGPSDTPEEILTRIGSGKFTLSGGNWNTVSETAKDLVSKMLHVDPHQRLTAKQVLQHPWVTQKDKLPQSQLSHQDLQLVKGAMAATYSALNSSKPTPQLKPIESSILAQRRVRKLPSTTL
Sequence of Glycogen synthase kinase-3 beta (P49841 whole entry, canonical isoform): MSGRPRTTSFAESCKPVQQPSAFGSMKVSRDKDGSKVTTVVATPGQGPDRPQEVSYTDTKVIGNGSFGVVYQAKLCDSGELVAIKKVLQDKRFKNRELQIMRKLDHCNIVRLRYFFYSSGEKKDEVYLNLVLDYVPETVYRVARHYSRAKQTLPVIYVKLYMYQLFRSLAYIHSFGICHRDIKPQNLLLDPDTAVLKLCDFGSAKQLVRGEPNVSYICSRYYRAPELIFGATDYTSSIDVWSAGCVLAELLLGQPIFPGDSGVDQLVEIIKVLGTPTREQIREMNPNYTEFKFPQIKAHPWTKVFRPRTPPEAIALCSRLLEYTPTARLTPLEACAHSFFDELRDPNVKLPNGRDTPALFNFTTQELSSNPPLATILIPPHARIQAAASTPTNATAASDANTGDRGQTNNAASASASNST

AUCt (Rattus norvegicus [1]): 386 ng·h/mL | half-life [2]: 2.42 h | MRT last [3]: 1.68 h | AUC (Rattus norvegicus [4]): 405 ng·h/mL | clearance [5]: 42.4 mL/min/kg | Vd [6]: 4.06 L/kg
SMILES: CN(C)CCn1cc(-c2ccn3c(-c4ccc(C(N)=O)c(OCc5ccccc5)c4)cnc3c2)cn1

IC50 [7]: 1190 nM
SMILES: C[C@@H](Oc1cc(-c2cnc3cc(N4CCN(C)CC4)ccn23)ccc1C(N)=O)c1ccccc1C(F)(F)F
IC50 (MGC-803): 3160 nM

IC50 [7]: 197000 nM
SMILES: CNC(=O)c1ccc(-c2cnc3cc(N4CCN(C)CC4)ccn23)cc1OC(C)c1ccccc1C(F)(F)F (stereo not drawn)

IC50 [7]: 3210 nM
SMILES: CN1CCN(c2ccn3c(-c4ccc(C(N)=O)c(OCc5ccccc5)c4)cnc3c2)CC1
IC50 (MGC-803): 6210 nM

AUCt (Rattus norvegicus [1]): 495 ng·h/mL | half-life [2]: 1.72 h | IC50 [7]: 1 nM | IC50 (Aurora kinase A): 5300 nM | IC50 [9]: 608 nM | IC50 [10]: 20 nM | IC50 [11]: 5.4 nM | IC50 [12]: 6.5 nM | IC50 [13]: 57 nM | IC50 [14]: > 10000 nM | IC50 [15]: 91 nM | IC50 [16]: 6230 nM | IC50 [17]: > 10000 nM | IC50 [18]: 370 nM | IC50 [19]: 441 nM | MRT last [3]: 1.3 h | AUC (Rattus norvegicus [4]): 507 ng·h/mL | clearance [5]: 33.3 mL/min/kg | Vd [6]: 2.53 L/kg
SMILES: CN(C)CCn1cc(-c2ccn3c(-c4ccc(C(N)=O)c(OCc5cccc(F)c5)c4)cnc3c2)cn1 [listing 1 of 2 here]
IC50 (MGC-803): 530 nM | IC50 (HCT-116 [8]): 840 nM | IC50 (Bel-7402): 7130 nM | Activity (HCT-116 [20]): 21.3% | Activity (HCT-116 [21]): 20.1% | Activity (HCT-116 [22]): 2.6% | Activity (HCT-116 [23]): 27.8% | Activity (HCT-116 [24]): 26.7% | Activity (HCT-116 [25]): 3.5%

IC50 [7]: 19300 nM
SMILES: COc1cc(-c2cnc3cc(N4CCN(C)CC4)ccn23)ccc1C(N)=O
IC50 (MGC-803): > 30000 nM

SMILES: CN(C)CCn1cc(-c2ccn3c(-c4ccc(C(N)=O)c(OCc5cccc(F)c5)c4)cnc3c2)cn1.O=C(O)CCC(=O)O.O=C(O)CCC(=O)O
inhibition in vivo at 20 mg/kg (HCT-116 [26]): 36% | Activity (Mus musculus): Non-Toxic

AUCt (Rattus norvegicus [1]): 262 ng·h/mL | half-life [2]: 1.49 h | IC50 [7]: 7 nM | IC50 (Aurora kinase A): > 10000 nM | MRT last [3]: 1.38 h | AUC (Rattus norvegicus [4]): 268 ng·h/mL | clearance [5]: 62.8 mL/min/kg | Vd [6]: 5.08 L/kg
SMILES: CN(C)CCn1cc(-c2ccn3c(-c4ccc(C(N)=O)c(OCc5cccc(C(F)(F)F)c5)c4)cnc3c2)cn1
IC50 (MGC-803): 790 to 800 nM | IC50 (HCT-116 [8]): 1290 nM | IC50 (Bel-7402): 2780 nM

SMILES: CN(C)CCn1cc(-c2ccn3c(-c4ccc(C(N)=O)c(OCc5cccc(F)c5)c4)cnc3c2)cn1 [listing 2 of 2 here]
Activity (HCT-116 [27]): Active | Activity (HCT-116 [28]): Active | Activity (HCT-116 [29]): Dose-dependent effect | Activity (HCT-116 [30]): Active

IC50 [7]: 42600 nM
SMILES: COC(=O)c1ccc(-c2cnc3cc(N4CCN(C)CC4)ccn23)cc1OC(C)c1ccccc1C(F)(F)F (stereo not drawn)

IC50 [7]: 10000 nM
SMILES: CN1CCN(c2ccn3c(-c4ccc(C(=O)NO)c(OCc5ccccc5C(F)(F)F)c4)cnc3c2)CC1
IC50 (MGC-803): 17100 nM

IC50 [7]: 2170 nM
SMILES: CC(Oc1cc(-c2cnc3cc(N4CCN(C)CC4)ccn23)ccc1C(N)=O)c1ccccc1C(F)(F)F (stereo not drawn)
IC50 (MGC-803): 12300 nM

— ChEMBL document CHEMBL4002599, “Structure-based design and synthesis of imidazo[1,2-a]pyridine derivatives as novel and potent Nek2 inhibitors with in vitro and in vivo antitumor activities” (Eur J Med Chem, 2017)
